Laboratory results taken from patent publication US20240398817A1, “CARDIO- AND RENOSAFE ANTIDIABETIC THERAPY” (priority 2018, published 2024).

System: patients with type 2 diabetes at high vascular risk
Assay: Cardiovascular and Renal Outcomes Trial: linagliptin 5 mg once daily vs placebo on top of standard of care
Type: in vivo
Conditions: for 3P-MACE: hazard ratio (95% CI) vs placebo: Cox regression
Description: The effect of linagliptin on cardiovascular risk in adult patients with type 2 diabetes mellitus and with increased CV risk evidenced by a history of established macrovascular or renal disease (e.g. as defined herein) was evaluated in a multi-center, multi-national, randomized, double-blind parallel group trial. The trial compared the risk of experiencing a major adverse cardiovascular event (MACE) between linagliptin and placebo when these were added to and used concomitantly with standard of care treatments for diabetes (HbA1c), cardiovascular risk factors and renal disease.
The primary endpoint in this trial was the time to first occurrence of three point (3P) MACE. A major adverse cardiac event was defined as a cardiovascular death or a nonfatal myocardial infarction (MI) or a nonfatal stroke. The statistical analysis plan tested for non-inferiority for the occurrence of (3P) MACE. […] The secondary endpoint was a renal composite, defined as renal death or sustained end stage renal disease or sustained decrease of 40% or more in eGFR.
Type 2 diabetes patient with insufficient glycemic control (naïve or pre-treated with any antidiabetic background medication, excluding treatment with GLP-1 receptor agonists, DPP-4inhibitors or SGLT-2 inhibitors if ≥consecutive 7 days, e.g. having HbA1c 6.5-10%), and high risk of cardiovascular events, e.g. defined by: • albuminuria (micro or macro) and previous macrovascular disease: e.g. defined according to Condition I as indicated below; • and/or • impaired renal function: e.g. as defined according to Condition II as indicated below;
Background and aims: People with type 2 diabetes (T2D) are at increased risk for hospitalization for heart failure (hHF), particularly in the setting of concomitant cardiovascular (CV) and/or kidney disease. […] Here we present analyses of HF outcomes with the DPP-4 inhibitor linagliptin (LINA) vs. placebo (PBO) from a Cardiovascular and Renal Outcomes Trial assessing cardiovascular safety and renal microvascular outcome in patients with type 2 diabetes at high vascular risk, a large CV outcomes trial that enrolled participants with T2D at high risk for hHF due to concomitant CV and/or chronic kidney disease. Materials and methods: People with T2D and concomitant CV and/or kidney disease were randomized to receive LINA 5 mg, or PBO once daily (1:1), on top of standard of care. All hHF, CV outcomes, and deaths were centrally adjudicated, with individual and composite HF-related outcomes analyses comparing LINA vs. placebo. Investigator-reported HF-related adverse events, whether or not confirmed by adjudication, were also analyzed. A Cox proportional hazards model adjusting for region and history of HF was used for analyses of first events. Recurrent hHF events were analyzed using a negative binomial model.
Methods: The present Cardiovascular and Renal Outcomes Trial randomized people with T2D and i) concomitant CV disease with UACR >30 mg/g or ii) prevalent CKD (i.e. GFR <45 ml/min/1.73m2 and/or UACR >200 mg/g) to receive the DPP-4 inhibitor linagliptin (5 mg) or placebo once daily in a double-blind fashion. The primary CV endpoint was 3P-MACE, with a key secondary kidney endpoint (adjudicated ESKD, renal death, or sustained ≥40% decrease in eGFR from baseline) and other renal outcomes (including albuminuria and eGFR slope) also assessed. Subgroups were assessed by baseline kidney function (eGFR ≥/<45 ml/min/1.73m2and eGFR ≥/<30, 45 or 60 ml/min/1.73m2).
Adults with type 2 diabetes, HbA1c 6.5-10.0% inclusive, and high CV risk were eligible for inclusion. […] Macrovascular disease eligibility criteria was based on documented and confirmed history of myocardial infarction, coronary artery disease, stroke, carotid artery disease, or peripheral artery disease. Participants with end-stage kidney disease (ESKD), defined as eGFR <15 or requiring maintenance dialysis, were excluded.

[1] = all patients, listed as Lingagliptin
[2] = all patients, listed as linagliptin
[3] = both, human, in vivo, 5 mg, 1.9 years
[4] = eGFR ≥30 to <45 mL/min/1.73 m^2

CC#CCn1c(N2CCC[C@@H](N)C2)nc2c1c(=O)n(Cc1nc(C)c3ccccc3n1)c(=O)n2C [Linagliptin, 1-[(4-methyl-quinazolin-2-yl)methyl]-3-methyl-7-(2-butyn-1-yl)-8-(3-(R)-amino-piperidin-1-yl)-xanthine]
3P-MACE: rate/100 patient-years (all patients): 4.69 per 100 patient-years | All-cause death: rate per 100 person-years (all patients): 4.69 per 100 person-years | All-cause mortality: incidence rate per 1000 PY (all patients): 46.9 per 1000 patient years | All-cause mortality: number of subjects (all patients): 367 | Hospitalization for heart failure: incidence rate/1000 patient-years (all patients): 27.7 per 1000 patient years | Hospitalization for heart failure: number of patients (all patients): 209 | Hospitalization for heart failure: rate/100 patient-years (all patients): 2.77 per 100 patient-years | Renal composite (40% eGFR): incidence rate per 1000 PY (all patients): 48.9 per 1000 patient years | Renal composite (40% eGFR): rate/100 patient-years (all patients): 4.89 per 100 patient-years | Renal composite (renal death, sustained ESRD, sustained decrease of 40% or more in eGFR): number of subjects (all patients): 327 | Renal death or sustained ESKD: number of patients (all patients): 136 | Renal death or sustained ESKD: patients, % (all patients): (3.9) % | Renal death or sustained ESKD: rate/1000 patient-years (all patients): 17.8 per 1000 patient years | Renal death, or sustained ESKD: rate/100 patient-years (all patients): 1.78 per 100 patient-years | Renal death, sustained ESKD, or sustained ≥ doubling of se-creatinine from baseline: n (all patients): 219 | Renal death, sustained ESKD, or ≥ doubling of se-creatinine: % (all patients): (6.3) % | Renal death, sustained ESKD, or ≥ doubling of se-creatinine: rate/100 patient-years (all patients): 3.21 per 100 patient-years | 3P-MACE: hazard ratio (95% CI) vs placebo (all patients): 1.02 | 3P-MACE: hazard ratio (95% CI) vs placebo [1]: 1.02 (0.89. 1.17) | 3P-MACE (CV death, non-fatal MI, non-fatal stroke): number of subjects with event (all patients, n = 3494): 434 | Hospitalization for heart failure: hazard ratio (95% CI) vs placebo (all patients, listed as LINA): 0.90 | Renal composite (40% eGFR): hazard ratio (CI) vs placebo (all patients, listed as LINA): 1.04 | 3P-MACE: subjects with event, % [1]: 12.4% | Renal composite (40% eGFR): hazard ratio (CI) vs placebo [1]: 1.04 (0.89, 1.22) | Renal composite (40% eGFR): subjects, % [1]: 9.4% | 3P-MACE: rate/100 patient-years [2]: 5.77 per 100 patient-years | 3P-MACE: subjects with event, % [2]: 12.4% | All-cause mortality: hazard ratio (95% CI) vs placebo [2]: 0.98 | All-cause mortality: subjects, % [2]: 10.5% | Hospitalization for heart failure: hazard ratio (95% CI) vs placebo [2]: 0.90 | Hospitalization for heart failure: patients, % [2]: 6.0% | Renal composite (40% eGFR): hazard ratio (CI) vs placebo [2]: 1.04 | Renal composite (40% eGFR): subjects, % [2]: 9.4% | Renal death or sustained ESKD: hazard ratio (95% CI) vs placebo [2]: 0.87 | Renal death or sustained ESKD: patients, % [2]: 3.9% | Fatal cases of pancreatitis: % [3]: 0.1% | Fatal cases of pancreatitis: n [3]: 2 | 3-point MACE: hazard ratio vs placebo (eGFR <30 mL/min/1.73 m^2): 0.97 | 3-point MACE: patients with event/patients analyzed (eGFR <30 mL/min/1.73 m^2): 101/516 | Key secondary kidney outcome: hazard ratio vs placebo (eGFR <30 mL/min/1.73 m^2): 1.05 | Key secondary kidney outcome: patients with event/patients analyzed (eGFR <30 mL/min/1.73 m^2): 133/516 | 3P-MACE: % (eGFR < 45 (n = 3000)): (16.6) % | 3P-MACE: HR (95% CI) vs placebo (eGFR < 45 (n = 3000)): 1.02 (0.85, 1.21) | 3P-MACE: n (eGFR < 45 (n = 3000)): 250 | 3P-MACE: rate/100 patient-years (eGFR < 45 (n = 3000)): 7.61 per 100 patient-years | Hospitalized heart failure: % (eGFR < 45 (n = 3000)): (8.9) % | Hospitalized heart failure: HR (95% CI) vs placebo (eGFR < 45 (n = 3000)): 0.87 (0.69, 1.10) | Hospitalized heart failure: n (eGFR < 45 (n = 3000)): 135 | Hospitalized heart failure: rate/100 patient-years (eGFR < 45 (n = 3000)): 4.13 per 100 patient-years | Key secondary kidney endpoint: % (eGFR < 45 (n = 3000)): (14.7) % | Key secondary kidney endpoint: HR (95% CI) vs placebo (eGFR < 45 (n = 3000)): 0.97 (0.80, 1.17) | Key secondary kidney endpoint: n (eGFR < 45 (n = 3000)): 222 | Key secondary kidney endpoint: rate/100 patient-years (eGFR < 45 (n = 3000)): 7.83 per 100 patient-years | Renal death, or sustained ESKD: % (eGFR < 45 (n = 3000)): (8.2) % | Renal death, or sustained ESKD: HR (95% CI) vs placebo (eGFR < 45 (n = 3000)): 0.82 (0.64, 1.04) | Renal death, or sustained ESKD: n (eGFR < 45 (n = 3000)): 124 | Renal death, or sustained ESKD: rate/100 patient-years (eGFR < 45 (n = 3000)): 3.78 per 100 patient-years | Renal death, sustained ESKD, or ≥ doubling of se-creatinine: % (eGFR < 45 (n = 3000)): (10.9) % | Renal death, sustained ESKD, or ≥ doubling of se-creatinine: HR (95% CI) vs placebo (eGFR < 45 (n = 3000)): 0.87 (0.70, 1.07) | Renal death, sustained ESKD, or ≥ doubling of se-creatinine: n (eGFR < 45 (n = 3000)): 165 | Renal death, sustained ESKD, or ≥ doubling of se-creatinine: rate/100 patient-years (eGFR < 45 (n = 3000)): 5.69 per 100 patient-years | Risk of composite microvascular outcome 1 vs placebo, in words (eGFR decrease 50%): significantly reduced | Risk of composite microvascular outcome 2 and 3 vs placebo, in words (eGFR decrease of 40% and 30%): also significantly reduced | 3-point MACE: hazard ratio vs placebo [4]: 1.07 | 3-point MACE: patients with event/patients analyzed [4]: 149/994 | Key secondary kidney outcome: hazard ratio vs placebo [4]: 0.95 | Key secondary kidney outcome: patients with event/patients analyzed [4]: 89/994 | 3P-MACE: % (eGFR ≥ 45 (n = 3979)): (9.3) % | 3P-MACE: HR (95% CI) vs placebo (eGFR ≥ 45 (n = 3979)): 1.03 (0.84, 1.26) | 3P-MACE: n (eGFR ≥ 45 (n = 3979)): 184 | 3P-MACE: rate/100 patient-years (eGFR ≥ 45 (n = 3979)): 4.34 per 100 patient-years | Hospitalized heart failure: % (eGFR ≥ 45 (n = 3979)): (3.7) % | Hospitalized heart failure: HR (95% CI) vs placebo (eGFR ≥ 45 (n = 3979)): 0.97 (0.70, 1.34) | Hospitalized heart failure: n (eGFR ≥ 45 (n = 3979)): 74 | Hospitalized heart failure: rate/100 patient-years (eGFR ≥ 45 (n = 3979)): 1.73 per 100 patient-years | Key secondary kidney endpoint: % (eGFR ≥ 45 (n = 3979)): (5.3) % | Key secondary kidney endpoint: HR (95% CI) vs placebo (eGFR ≥ 45 (n = 3979)): 1.19 (0.89, 1.58) | Key secondary kidney endpoint: n (eGFR ≥ 45 (n = 3979)): 105 | Key secondary kidney endpoint: rate/100 patient-years (eGFR ≥ 45 (n = 3979)): 2.72 per 100 patient-years | Renal death, or sustained ESKD: % (eGFR ≥ 45 (n = 3979)): (0.6) % | Renal death, or sustained ESKD: HR (95% CI) vs placebo (eGFR ≥ 45 (n = 3979)): 1.50 (0.61, 3.67) | Renal death, or sustained ESKD: n (eGFR ≥ 45 (n = 3979)): 12 | Renal death, or sustained ESKD: rate/100 patient-years (eGFR ≥ 45 (n = 3979)): 0.28 per 100 patient-years | Renal death, sustained ESKD, or ≥ doubling of se-creatinine: % (eGFR ≥ 45 (n = 3979)): (2.7) % | Renal death, sustained ESKD, or ≥ doubling of se-creatinine: HR (95% CI) vs placebo (eGFR ≥ 45 (n = 3979)): 1.08 (0.73, 1.59)
